Data set [1] relates to CYP enzymes that metabolise ribociclib in HLM (total metabolism; CYP-selective chemical inhibitors). The data set is described as follows: Inhibition of [3H] ribociclib total metabolism in HLM by CYP- and FMO-selective inhibitors. It counts as in vitro ADME. As to conditions: both, human, human liver microsomes, pH 7.4, probe [3H] ribociclib. (In general: Microsomes from liver hold many membrane-bound enzymes, among them those of drug oxidation.)

Data set [2] in a line: Human ADME study: quantitative metabolite profiling in plasma. Format: in vivo. Also on record: AUC0-48h: concentration or dose not given beside the values. The protocol: A plasma pool across the six healthy volunteers included in the study was prepared at the time points of 1 hour, 3 hours, 24 hours, and 48 hours post dose. For each time point, an equal volume of plasma was taken from each subject and combined. Plasma pool samples were processed by protein precipitation with acetonitrile. The protein pellet that resulted from precipitation with acetonitrile was washed further with additional aliquots of acetonitrile. All acetonitrile washes were combined and evaporated under nitrogen. For the 3‐ and 24‐hour plasma pools, the extraction procedure was slightly modified, including precipitation of the plasma proteins by addition of a 1:1 mixture of acetonitrile:methanol, followed by washing of the protein pellet with the same solvent mixture. All extracts were reconstituted with a solution of 15‐mM ammonium formate and acetonitrile (95:5 v/v). Extraction and reconstitution recoveries were measured in all four plasma samples in order to calculate and overall recovery. Quantitative metabolite profiling in plasma was accomplished using a Shimadzu Prominence high‐performance liquid chromatography (HPLC) system (Shimadzu, Columbia, MD, USA), coupled with fraction collection and analysis of total radioactivity in individual fractions using AMS (as described above). A second injection of each sample, conducted immediately after the first, was used to provide HPLC fractions for metabolite identification. The fractions identified as containing radioactivity from the AMS analysis were analyzed by HPLC coupled with high‐resolution mass spectrometry to identify the metabolites. The HPLC‐MS/MS methodology used is described below.

The nature of data set [3]: Contribution of metabolites to total pharmacological activity in human. As to conditions: considering in vitro measurements and in vivo exposure.
A short description of data set [4]: Human ADME study: quantitative metabolite profiling in urine and feces. As to conditions: for Excretion (% of dose), Total: urine plus feces, pooled excreta n=6. It counts as in vivo. The protocol:
Average pools across the six subjects were also created by combining equal percentages (of total urine and feces excreted over the time interval) of the individual subject pools. Urine pools were analyzed directly for metabolite profiling (column recovery of a representative sample was measured), whereas feces pools were subjected to extraction. Specifically, to each aliquot of feces homogenate, two volumes of acetonitrile were added. After centrifugation, the pellet was washed further with an additional two volumes of acetonitrile. […] All washes were combined, evaporated under nitrogen, and reconstituted with a solution of 15‐mM ammonium formate (pH 3.5). This feces extract reconstitute was analyzed for metabolite profiling. Combined extraction and reconstitution (overall recovery) and column recovery were measured. […] The HPLC column used was a Phenomenex Kinetex, C18, 250 × 4.6 mm, equipped with a pre‐column of the same type (2.1 × 4.6 mm), which was placed in a column oven at 40°C. […] The HPLC gradient was as follows: initial conditions were 5% mobile phase B for 1 minute, then increased to 20% at 10 minutes post injection where it was held (isocratic) up to 20 minutes. […] The post column flow was directed to the fraction collector operated in a time‐slice mode and containing 96‐well Lumaplates (Perkin Elmer). The plates were dried at room temperature and the radioactivity was measured using a microplate scintillation counter model TopCount NXT (Perkin Elmer) instrument (up to 3 × 100‐minute counting time). […] Metabolites were identified during the same injections using data generated by the high‐resolution mass spectrometer. The molecular ions and key fragments of each drug‐related component were determined. Key fragments for each metabolite were derived from their product ion mass spectra and were used to determine the metabolite structures. Where possible, structural assignments were supported by exact mass measurement, comparison with synthetic standards and/or Hydrogen/Deuterium (H/D) exchange LC‐MS(/MS).

Substrate in data set [5]: CN(C)C(=O)c1cc2cnc(Nc3ccc(N4CCNCC4)cn3)nc2n1C1CCCC1
Put plainly: Enzyme kinetics with recombinant CYP1A2 and scaling to HLM. It counts as in vitro ADME, human. As to conditions: other: recombinant CYP1A2; 37.0 °C. The protocol:
(§1) In vitro incubations were carried out in 100‐mM potassium phosphate buffer (pH 7.4) and 5‐mM MgCl2 with a total volume of 200 µL. Substrate and either human liver microsomes (HLM, BD Biosciences, mixed gender pool of n = 50) or recombinant human enzymes (BD Biosciences) were added and pre‐incubated for 3 minutes at 37°C. The reaction was started by addition of a fresh solution of NADPH (1 mmol/L final concentration). The samples were incubated at 37°C with agitation of 500 rpm. For incubations with CYP2A6, CYP2C9, CYP2C18, and CYP4A11, the phosphate buffer was replaced by TRIS buffer (100 mmol/L, pH 7.4) and for flavin‐containing monooxygenases (FMOs), a glycine buffer (50 mM, pH 9.5) was used.
(§2) The enzymatic reaction was stopped and the protein was precipitated by addition of an equal volume of methanol. After 30 min at −80°C, the samples were centrifuged at 30'000 x g for 15 min. The supernatant was withdrawn. Aliquots were analyzed by LSC and the supernatant was diluted with water to obtain a final solution containing less than 20% of the organic solvent. For samples of low substrate concentration, supernatants were evaporated to dryness under nitrogen, then re‐suspended in water containing less than 20% of methanol. Samples were analyzed by HPLC combined with radiodetection.
(§3) The relative contribution of CYP enzymes to oxidative hepatic metabolism was determined using their Clint values multiplied by the unbound fraction in microsomes and their abundances in human liver microsomes. ^15 Among the hepatic P450 enzymes, CYP3A4 contributed predominantly (97%) to metabolism in human liver microsomes (Table 1) with negligible fraction metabolized by CYP1A2 (1.1%), CYP2J2 (0.8%), and CYP3A5 (1.2%).

Substrate in data set [6]: CN(C)C(=O)c1cc2cnc(Nc3ccc(N4CCNCC4)cn3)nc2n1C1CCCC1
The data set is described as follows: Enzyme kinetics with recombinant CYP3A5 and scaling to HLM. Format: in vitro ADME, human. As to conditions: other: recombinant CYP3A5; 37.0 °C. As to the method:
as §1, §2, §3

Setting [7] is: human plasma pools n=6, from metabolite patterns.

We go through seven molecules from paper PMC7287031 (Pharmacology Research & Perspectives, 2020).

Where only a bound is given, the exact number is not on record here.

What is called IC50 is the concentration that inhibits the measured activity by half. `CC[C@]1(C)C[C@@H](OC(=O)CSc2nnc(N)[nH]2)[C@]2(C)[C@H](C)CC[C@]3(CCC(=O)[C@H]32)[C@@H](C)[C@@H]1O` [Azamulin] had a 50% inhibitory concentration (IC50) in data set [1] of 1.05 µM.

`CN(C)C(=O)c1cc2cnc(Nc3ccc(N4CCN(O)CC4)cn3)nc2n1C1CCCC1` [M13 (CCI284)]: the “AUC0-48h, % of total [14C]-AUC0-48” value in data set [2] (setting [7]) came out at 9.39%. Moreover, the “metabolite exposure as % of ribociclib exposure” value in data set [2] (human plasma, AUC0-48) was found to be 21.6%. Further, in data set [3], the “contribution to total pharmacological activity in human” value is reported as “not to have a relevant contribution to total pharmacological activity”.

As for `CN(CO)C(=O)c1cc2cnc(Nc3ccc(N4CCNCC4)cn3)nc2n1C1CCCC1` [M15], in data set [2] (human plasma), the “detection in plasma (AMS metabolite profiling)” value was “not observed in plasma”. In addition, the “Excretion (% of dose), Urine” value in data set [4] (pooled excreta n=6, from metabolite patterns (radio profiling)) was 1.50 % of dose. Moreover, in data set [4], the “Excretion (% of dose), Total” value was 1.50 % of dose.

As to `CN(C)C(=O)c1cc2cnc(Nc3ccc(N4CCN(S(=O)(=O)O)CC4)cn3)nc2n1C1CCCC1` [M8 (CQM386)], in data set [2] (setting [7]), the AUC0-48h came to 14.2 nM·h and the “AUC0-48h, % of total [14C]-AUC0-48” value turned out to be 0.0297%. The “Concentration in plasma pool” value in data set [2] (human, 1 h post dose, pool n=6, from metabolite patterns) came to 9.50 nM. Further, the “Excretion (% of dose), Total” value in data set [4] was < 5.21 % of dose.

`CC(C)(O)c1ccccc1CC[C@@H](SCC1(CC(=O)O)CC1)c1cccc(/C=C/c2ccc3ccc(Cl)cc3n2)c1` [Montelukast]: the IC50 in data set [1] is > 2 µM.

B1: CYP1A2 (Homo sapiens) (protein)
chain: MALSQSVPFSATELLLASAIFCLVFWVLKGLRPRVPKGLKSPPEPWGWPLLGHVLTLGKNPHLALSRMSQRYGDVLQIRIGSTPVLVLSRLDTIRQALVRQGDDFKGRPDLYTSTLITDGQSLTFSTDSGPVWAARRRLAQNALNTFSIASDPASSSSCYLEEHVSKEAKALISRLQELMAGPGHFDPYNQVVVSVANVIGAMCFGQHFPESSDEMLSLVKNTHEFVETASSGNPLDFFPILRYLPNPALQRFKAFNQRFLWFLQKTVQEHYQDFDKNSVRDITGALFKHSKKGPRASGNLIPQEKIVNLVNDIFGAGFDTVTTAISWSLMYLVTKPEIQRKIQKELDTVIGRERRPRLSDRPQLPYLEAFILETFRHSSFLPFTIPHSTTRDTTLNGFYIPKKCCVFVNQWQVNHDPELWEDPSEFRPERFLTADGTAINKPLSEKMMLFGMGKRRCIGEVLAKWEIFLFLAILLQQLEFSVPPGVKVDLTPIYGLTMKHARCEHVQARLRFSIN
notes: purchased BD Biosciences
In general, Km refers to the concentration of substrate that gives half-maximal velocity. Usually kcat stands for the maximal rate divided by the concentration of active sites. The term kcat/Km denotes the second-order rate constant that governs catalysis at low substrate concentration. On to B1, for which, in data set [5], the Michaelis constant (Km) was 48 µM, the kcat is 0.0185 s⁻¹ and the catalytic efficiency (kcat/Km) came out at 383 M⁻¹ s⁻¹.

B2: CYP3A5 (Homo sapiens) (protein)
chain: MDLIPNLAVETWLLLAVSLVLLYLYGTRTHGLFKRLGIPGPTPLPLLGNVLSYRQGLWKFDTECYKKYGKMWGTYEGQLPVLAITDPDVIRTVLVKECYSVFTNRRSLGPVGFMKSAISLAEDEEWKRIRSLLSPTFTSGKLKEMFPIIAQYGDVLVRNLRREAEKGKPVTLKDIFGAYSMDVITGTSFGVNIDSLNNPQDPFVESTKKFLKFGFLDPLFLSIILFPFLTPVFEALNVSLFPKDTINFLSKSVNRMKKSRLNDKQKHRLDFLQLMIDSQNSKETESHKALSDLELAAQSIIFIFAGYETTSSVLSFTLYELATHPDVQQKLQKEIDAVLPNKAPPTYDAVVQMEYLDMVVNETLRLFPVAIRLERTCKKDVEINGVFIPKGSMVVIPTYALHHDPKYWTEPEEFRPERFSKKKDSIDPYIYTPFGTGPRNCIGMRFALMNMKLALIRVLQNFSFKPCKETQIPLKLDTQGLLQPEKPIVLKVDSRDGTLSGE
notes: purchased BD Biosciences
Turning to B2, in data set [6], the Michaelis constant (Km) was determined as 23.9 µM, the kcat stood at 0.0122 s⁻¹ and the catalytic efficiency (kcat/Km) came out at 517 M⁻¹ s⁻¹.
